Experiments:
[1] = test system: Rh18 cells; experiment: Cell growth inhibition, Rh18 cells; assay type: cell-based, human; settings: complete medium, six days, nuclei counted
Experimental: Cell lines and growth conditions. The human cell lines Rh1, Rh18, and Rh30 (ATCC Deposit # CRL 2061) have been described, e.g., by Hazelton et al. Cancer Res 1987;47:4501-4507 and Hosoi et al. Cancer Res. 1999;59:886-894. Rh1, Rh18 and Rh30 cells can each be grown in antibiotic free RPMI-1640 medium (available from BioWhittaker, Walkersville, Md.), supplemented with 10% fetal bovine serum (available from HyClone Laboratories, Logan, Utah) and 2 mM L-glutamine (available from BioWhittaker, Walkersville, Md.) at 37° C. in an atmosphere of 5% CO2. For serum free experiments, cells can be cultured in modified N2E (MN2E) medium (DMEM/F-12, 1:1 mixture) (Sigma, St. Louis, Mo.) supplemented with 1 μg/ml human holo transferrin, 30 nM sodium selenite, 20 nM progesterone, 100 μM putrescine, 30 nM vitamin E phosphate, and 50 μM ethanolamine. […]
Cell growth inhibition. […] Growth can be assessed after lysing cells, and counting nuclei. […]
The effect(s) of compounds, including phenoxazine compounds such as those listed in Table I, above, on cell growth can be evaluated in cell-based assays such as the exemplary assays described here. Rh1, Rh18 and/or Rh30 cells grown in complete medium can be exposed to graded concentrations of test compound (e.g., from 0.1 to 25 μM) for six days, at which time the cells can be lysed and their growth assessed by counting nuclei. […]

[2] = test system: endogenous AKT; experiment: Cellular AKT kinase activity: AKT immunoprecipitated from treated Rh1 cells phosphorylates GSK-3 fusion protein; assay type: cell-based, human; settings: 5 μM, 1 hour, IGF-I 10 minutes
Experimental: Determination of cellular AKT kinase activity. AKT kinase activity can be quantitated using a commercial assay kit (available from Cell Signaling Technology, Beverly, Mass.) according to the manufacturer's instructions. Specifically, Rh1 cells are seeded in serum-free medium at a density of 4×10^6 per 10-cm plate. […] Cells are then stimulated with ±IGF-I ([…]) for 10 minutes and washed once with ice-cold PBS. Cells are lysed in 200 μl of ice-cold 1× lysis buffer (20 mM Tris, pH 7.5; 150 mM NaCl; 1 mM EDTA; 1 mM EGTA; 1% Triton X-100; 2.5 mM sodium pyrophosphate; 1 mM β-glycerol phosphate; 1 mM Na3VO4; 1 mM phenylmethylsulfonyl fluoride; and 1 mM leupeptin) and incubated for 10 minutes on ice. The cell lysates are then centrifuged for 10 minutes at 17,500×g at 4° C. Volumes of the supernatants are preferably adjusted so that each sample contains an equal amount of protein (150 μg). The supernatants are then incubated with immobilized (cross-linked) anti-AKT antibody (Cell Signaling Technology, Beverly, Mass., catalog # 9279) for 3 hours at 4° C. […]
To determine directly whether compounds, such as the phenoxazine compounds in Table I, inhibit AKT activation in cells, the activation of AKT by IGF-I can be evaluated by assessing either phosphorylation of AKT (Ser473), or the in vitro kinase activity of protein immunoprecipitated by anti-AKT antibody. […]

“10-[4′-[(β-hydroxyethyl)piperazino]butyl]-2-chlorophenoxazine [Compound 15B]” was tested. Which IC50 [1] did it give?
Its IC50 is 5 µM.

What about the “phosphorylation of GSK-3 fusion protein by AKT immunoprecipitated from treated cells” value [2] of the same compound?
The value was “completely inhibited”.

With `CCN(CC)CCCCN1c2ccccc2Oc2ccc(Cl)cc21` [Compound 10B, 10-[4′-(N-diethylamino)butyl]-2-chlorophenoxazine] as the compound, how does the IC50 [1] read?
Its IC50 is 5 µM.

What about the “phosphorylation of GSK-3 fusion protein by AKT immunoprecipitated from treated cells” value [2] of the same compound?
The value was “completely inhibited”.

— patent US20060241108A1, “Substituted phenoxazines and acridones as inhibitors of AKT” (St. Jude Children's Research Hospital, priority 2005, published 2006)
